The text below walks through data of patent publication EP1616965A1, “Methods and assays for detecting guanylate cyclase activity” (AXXAM S.r.l., priority 2004, dated 2006).

The test has as its target T1, soluble guanylate cyclase (sGC) (Rattus norvegicus, UniProt P19686+P20595, C541D/E473K/R592Q).
T1 construct: To reconstitute the full length mutated gene, these three discrete fragments were used as template in a final PCR reaction; expressed in transfected cells
T1 sequence (P19686 1-690 R592Q): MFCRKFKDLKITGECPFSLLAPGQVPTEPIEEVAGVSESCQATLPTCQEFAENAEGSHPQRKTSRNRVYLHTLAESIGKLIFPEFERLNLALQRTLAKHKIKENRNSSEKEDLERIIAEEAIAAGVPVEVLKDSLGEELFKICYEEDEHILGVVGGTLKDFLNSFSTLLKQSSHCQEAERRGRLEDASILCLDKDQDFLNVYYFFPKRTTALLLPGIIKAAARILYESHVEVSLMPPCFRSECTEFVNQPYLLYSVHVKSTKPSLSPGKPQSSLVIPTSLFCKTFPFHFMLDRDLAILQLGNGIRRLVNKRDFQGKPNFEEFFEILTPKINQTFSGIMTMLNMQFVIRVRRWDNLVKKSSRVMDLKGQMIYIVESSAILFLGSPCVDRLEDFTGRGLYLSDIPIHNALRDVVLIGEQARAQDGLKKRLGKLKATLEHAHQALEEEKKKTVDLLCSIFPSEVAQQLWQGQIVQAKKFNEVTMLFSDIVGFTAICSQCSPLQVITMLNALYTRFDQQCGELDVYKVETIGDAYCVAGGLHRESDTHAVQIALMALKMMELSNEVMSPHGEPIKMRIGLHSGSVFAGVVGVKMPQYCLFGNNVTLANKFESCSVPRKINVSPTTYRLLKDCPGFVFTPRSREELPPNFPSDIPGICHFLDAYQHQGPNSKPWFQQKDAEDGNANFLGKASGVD
T1 sequence (P20595 1-619 E473K/C541D): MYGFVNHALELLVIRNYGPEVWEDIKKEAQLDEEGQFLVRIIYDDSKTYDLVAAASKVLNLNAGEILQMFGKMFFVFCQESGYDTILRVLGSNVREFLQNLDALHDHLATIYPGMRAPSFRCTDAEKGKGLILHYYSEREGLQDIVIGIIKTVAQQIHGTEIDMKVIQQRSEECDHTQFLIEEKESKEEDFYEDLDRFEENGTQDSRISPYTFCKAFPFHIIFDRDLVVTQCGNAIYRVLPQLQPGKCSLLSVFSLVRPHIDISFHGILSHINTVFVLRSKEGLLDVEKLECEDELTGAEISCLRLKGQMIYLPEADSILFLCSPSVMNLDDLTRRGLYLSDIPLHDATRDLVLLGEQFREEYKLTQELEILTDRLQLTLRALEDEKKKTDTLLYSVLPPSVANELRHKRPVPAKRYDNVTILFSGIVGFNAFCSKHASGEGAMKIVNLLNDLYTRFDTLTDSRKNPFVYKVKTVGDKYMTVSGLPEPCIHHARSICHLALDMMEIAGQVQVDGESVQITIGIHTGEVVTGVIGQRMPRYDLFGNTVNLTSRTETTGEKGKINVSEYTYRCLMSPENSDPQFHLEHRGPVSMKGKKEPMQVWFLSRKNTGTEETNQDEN
In words: MRE-CRE luciferase reporter assay in CHO cAMPL cells expressing mutated sGC (clone 7). Format: cell-based. The settings on record: dose response of BAY41-2272 in the absence or presence of ODQ (300 nM, 3 µM, 30 µM); 384 wp, Tyrode buffer. The protocol: According to the invention, the sGC enzymatic activity is determined by coupling a sGC enzyme with modified substrate specificity to a cAMP sensitive reporter construct in a suitable eukaryotic or prokaryotic cell, whereby the activity of the reporter gene is indicative of the sGC enzymatic activity. The sGC enzyme with modified substrate specificity is able to catalyze the conversion of ATP into cyclic AMP without affecting the allosteric regulation of the natural enzyme. The sGC substrate specificity can be modified by replacing the amino acid residues involved in nucleotide binding with the corresponding residues present in the active site of adenylate cyclase. For example, when rat sGC is used, the amino acids Arg592 of α subunit, Glu473 and Cys541 of β subunit are respectively changed into Gln, Lys and Asp, to confer ATP substrate-specificity. More details on the modification of sGC substrate specificity can be found in Sunahara et al. (1998), which is hereby incorporated by reference.
Rat wild type sGC […] and β1 subunits were amplified from brain cDNA by RT-PCR and used as templates for site directed mutagenesis. […]
1500 c/w were seeded in 384 wp. […] Luciferase activity was detected after injection of 25ul Bright-GloTM (Promega) at the CCD camera (60" measurement, high sensitivity). […]
For orientation: In a reporter assay the amount or activity of a reporter protein is the signal.

Molecules are shown by their SMILES.

Regarding `O=c1onc2cnc3ccccc3n12` [ODQ], the “Inhibition of BAY41-2272 activity by ODQ” value is recorded as “BAY41-2272 stimulating effect on sGC is competed by ODQ”.
